{
  "source": "patent US7605280B2",
  "about": "“Anthraquinone and its derivatives” (Biostatus Limited, priority 1998, dated 2009)",
  "test_in_all_cases": "FACScan (Cytometer C) flow cytometric analysis of DRAQ5-labelled cells",
  "type_in_all_cases": "cell-based, human",
  "key": {"Granulocytes": {"test_system": "Granulocytes", "details": "20 μM DRAQ5, 5 min", "method": "(§1) Suspension cultures were analysed by flow cytometry without washing. Human blood was obtained using routine venepuncture of a healthy donor and samples manipulated using standard haematological procedures for the isolation of mononuclear blood cells and surface antigen recognition using antibody panels (see Table 1).\n(§2) Cells were analysed using one of four flow cytometers according to the excitation requirements. • Cytometer A: Single beam high power 647 nm krypton laser excitation: The system was a custom-built cytometer and incorporated an Innova 3000K krypton laser (Coherent Corp., Palo Alto, Calif., USA) tuned to the 647 nm line. Forward light scatter, 90° light scatter and fluorescence emissions were collected for 1×10^4 cells using the 90° light scatter parameter as the master signal. The optical system permitted the analysis of various fluorescence emission wavelengths including: >715 nm (termed low infra-red) and, as reported here >780 nm fluorescence (infra-red ). Forward and 90° light scatter were analysed for the identification of cell debris. Laser power was set at 200 mW and linear amplifiers were used for the fluorescence signals. The analysis optics included a 675 nm cold dichroic mirror, ambient laboratory temperature was approximately 12° C. and the sheath reservoir was maintained at 10° C. Filters were supplied by Melles Griot. Median, mean and mode parameters were calculated for the distribution of fluorescence intensity-values throughout a given cell population. In all experiments, median and mean values produced very similar results. Median values alone are reported since this parameter is less affected by the presence of highly fluorescent cells beyond the upper limit for quantification. • Cytometer B: Dual beam low power 633 nm/high power 488 nm laser excitation: The system was a FACS 440 cell sorter (Becton Dickinson Inc., Cowley, UK) incorporating a Spectra Physics argon ion laser (max 500 mW output), tuned to the 488 nm line (100 mW output), and a secondary Spectra Physics 156 helium-neon laser emitting at 633 nm (emitting <5 mW), with a temporal beam separation of about 30 μsec. Forward light scatter, 90° light scatter and fluorescence emissions were collected for 1×10^4 cells using the forward light scatter parameter as the master signal from the primary 488 nm beam, while side scatter was collected through a 488/10 nm band-pass filter. The analysis optics included: i) a cold dichroic mirror (transmitting >675 nm), ii) fluorescence from fluorescein excited by the 488 nm beam detected at a PMT guarded by a 535/15 nm band-pass filter with no signal delay, and iii) a red-sensitive PMT with an appropriate delay, additionally guarded by a 620 nm long-pass filter, to detect the transmitted beam of DRAQ5-associated fluorescence at wavelengths beyond 675 nm (high-red and extending into the infra red region of the spectrum) Forward and 90° light scatter were analysed to exclude any cell debris. All parameters were acquired at 256 channel resolution with Consort 30 software (Becton Dickinson) and subsequently analysed with WinMDI software (J. Trotter, La Jolla, Calif.). The system employed the same analysis optics when used in the single 488 nm beam mode but with no signal delay for the red-sensitive PMT. • Cytometer C: Single beam, low power 488 nm laser excitation: The system was a FACScan (Becton Dickinson; Inc., Cowley, UK) incorporating an argon ion laser (max 15 mW output), tuned to the 488 nm line. Forward light scatter, 90° light scatter and fluorescence emissions were collected for 1×10^4 cells using the forward light scatter parameter as the master signal. The standard analysis optics provided the FL1 […]/FL3 (red) PMT parameters with pulse analysis performed on the FL3 originating signals. • Cytometer D: Triple beam medium power 633 nm/medium power 488 nm/medium power multiline-UV laser excitation: […]"}, "Lymphocytes": {"test_system": "Lymphocytes", "method": "as §1, §2"}, "Monocytes": {"test_system": "Monocytes", "method": "as §1, §2"}, "[1]": {"details": "Preparation 3, 20 μM DRAQ5, 120 min"}, "[2]": {"details": "Preparation 3, 4.8 × 10^5/ml, 20 μM DRAQ5, 5 min"}, "[3]": {"details": "Preparation 3, 7.5 × 10^5/ml, 20 μM DRAQ5, 5 min"}, "[4]": {"details": "Preparation 3 Ficoll-isolated viable mononuclear blood cells, 2.5 × 10^5/ml, 20 μM DRAQ5, 5 min"}, "[5]": {"details": "Preparation 4 (Preparation 3 plus surface antigen analysis), 20 μM DRAQ5, 5 min"}, "[6]": {"details": "Preparation 5 whole blood, viable cells, 20 μM DRAQ5, 5 min"}, "[7]": {"details": "Preparation 6 whole blood, cells lysed and fixed, 20 μM DRAQ5, 5 min"}},
  "data": [
    {"compound": "CN(C)CCNc1ccc(O)c2c1C(=O)c1c(O)ccc(NCCN(C)C)c1C2=O", "note": "[DRAQ5]", "values": [
      {"measurement": "Mean fluorescence intensity (±sd) of gated population", "setting": "Granulocytes; Preparation 5 whole blood, viable cells", "value": "248.4 ± 35.9"},
      {"measurement": "Mean fluorescence intensity (±sd) of gated population", "setting": "Granulocytes; Preparation 6 whole blood, cells lysed and fixed", "value": "254.3 ± 31.1"},
      {"measurement": "Mean fluorescence intensity (±sd) of gated population", "setting": "Lymphocytes; [1]", "value": "299.1 ± 23.9"},
      {"measurement": "Mean fluorescence intensity (±sd) of gated population", "setting": "Lymphocytes; [2]", "value": "215.9 ± 26.3"},
      {"measurement": "Mean fluorescence intensity (±sd) of gated population", "setting": "Lymphocytes; [3]", "value": "234.1 ± 27.0"},
      {"measurement": "Mean fluorescence intensity (±sd) of gated population", "setting": "Lymphocytes; [4]", "value": "227.4 ± 24.5"},
      {"measurement": "Mean fluorescence intensity (±sd) of gated population", "setting": "Lymphocytes; [5]", "value": "261.6 ± 26.3"},
      {"measurement": "Mean fluorescence intensity (±sd) of gated population", "setting": "Lymphocytes; [6]", "value": "257.3 ± 35.0"},
      {"measurement": "Mean fluorescence intensity (±sd) of gated population", "setting": "Lymphocytes; [7]", "value": "228.5 ± 28.5"},
      {"measurement": "Mean fluorescence intensity (±sd) of gated population", "setting": "Monocytes; [1]", "value": "342.2 ± 22.4"},
      {"measurement": "Mean fluorescence intensity (±sd) of gated population", "setting": "Monocytes; [2]", "value": "301.8 ± 24.3"},
      {"measurement": "Mean fluorescence intensity (±sd) of gated population", "setting": "Monocytes; [3]", "value": "311.0 ± 30.9"},
      {"measurement": "Mean fluorescence intensity (±sd) of gated population", "setting": "Monocytes; [4]", "value": "302.9 ± 25.4"},
      {"measurement": "Mean fluorescence intensity (±sd) of gated population", "setting": "Monocytes; [5]", "value": "317.9 ± 27.3"},
      {"measurement": "Mean fluorescence intensity (±sd) of gated population", "setting": "Monocytes; [6]", "value": "274.6 ± 41.0"},
      {"measurement": "Mean fluorescence intensity (±sd) of gated population", "setting": "Monocytes; [7]", "value": "240.2 ± 28.1"},
      {"measurement": "enhanced staining potential of monocytes versus lymphocytes", "setting": "Monocytes; Preparations 3 and 4", "value": "1.14-1.4 fold"}
    ]}
  ]
}
